Data published in patent US8642284B1, “Methods for identifying agents that alter NAD-dependent deacetylation activity of a SIR2 protein” (Massachusetts Institute of Technology, priority 1999, dated 2014).
Entries after “also recorded” stand apart in the source; their conditions may differ.

What was measured:
mSir2α = target: T1, mSir2α (Mus musculus, UniProt Q923E4); test: ADP-ribosylation assay, sensitivity of mSir2α to poly- and mono-ADP-ribosylation inhibitors (histone H2B, 32P-NAD); type: biochemical; conditions: for inhibition of the ADP-ribosylation activity of the mSir2α protein: 40, 200 and 1000 μM
T1 construct: ADP-ribosylase activity of bacterial recombinant full-length proteins of ySir2p and mSir2α was determined in in vitro assays; 6×His; made in house; host or cells: E. coli BL21 (DE3) pLysS with an extra copy of arginine tRNA gene, pET28a
T1 sequence (Q923E4 1-737): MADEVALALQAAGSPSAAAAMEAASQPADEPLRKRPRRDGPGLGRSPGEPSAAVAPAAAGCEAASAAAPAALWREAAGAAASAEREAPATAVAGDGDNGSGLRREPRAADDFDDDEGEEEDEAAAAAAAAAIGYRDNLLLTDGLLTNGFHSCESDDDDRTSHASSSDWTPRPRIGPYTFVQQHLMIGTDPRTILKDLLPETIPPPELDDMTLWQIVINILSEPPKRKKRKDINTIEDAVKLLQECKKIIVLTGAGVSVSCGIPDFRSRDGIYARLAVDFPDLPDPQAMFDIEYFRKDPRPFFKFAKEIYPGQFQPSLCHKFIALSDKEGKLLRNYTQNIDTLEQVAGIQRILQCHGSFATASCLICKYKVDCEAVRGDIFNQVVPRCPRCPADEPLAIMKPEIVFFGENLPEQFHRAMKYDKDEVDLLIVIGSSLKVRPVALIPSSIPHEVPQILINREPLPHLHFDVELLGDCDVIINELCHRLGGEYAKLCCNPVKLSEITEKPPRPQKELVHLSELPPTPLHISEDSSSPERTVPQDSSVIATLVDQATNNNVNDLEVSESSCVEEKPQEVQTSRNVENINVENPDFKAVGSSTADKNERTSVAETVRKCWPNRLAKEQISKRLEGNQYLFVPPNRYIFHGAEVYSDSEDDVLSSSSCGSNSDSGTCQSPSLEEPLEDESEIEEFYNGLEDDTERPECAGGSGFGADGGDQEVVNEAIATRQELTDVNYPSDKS
Experimental: The typical reaction was performed in 50 or 100 μl of the buffer containing 5 mM Tris-HCl [pH8.0 or 9.0], 4 mM MgCl2, 0.2 mM DTT, 1 μM cold β-NAD^+ (SIGMA®) and 8 μCi nicotinamide adenine dinucleotide 5′[α-^32P]triphosphate (NAD) as a donor of ADP-ribose (˜1000 Ci/mmol, Amersham Pharmacia Biotech). To check the sensitivity to poly- or mono-ADP-ribosylation inhibitors, 3-aminobenzamide (ICN Pharmaceuticals, CA), benzamide, novobiocin and coumermycin A1 (SIGMA®) were added to the reactions prior to adding Sir2 proteins, respectively. The wild type or mutant recombinant proteins (0.5-1 μg for ySir2p and 10 μg of mSir2α) were added with 4 μg of each histone purchased from Roche Molecular Biochemicals (Indianapolis, Ind.). For the peptide experiments, 5-10 μg of unacetylated or acetylated N-terminal tail peptides (amino acids 1-20) of H3 and H4 purchased from Upstate Biotechnology™ (Lake Placid, N.Y.) were used as substrates of the yeast and mouse Sir2 recombinant proteins.
To analyze histone modification, 25 μl of 100% trichloroacetic acid (TCA) solution was mixed to the reaction mixture and left on ice for 15 min. The protein precipitates were centrifuged at 4° C. and washed with 5 or 20% TCA solution twice. The pellets were dissolved in 15 μl of Leammli's sample buffer and boiled for 1.5 min. The proteins were electrophoresed in a 10-20% gradient SDS-PAGE gel. The gel was stained with COOMASSIE® Brilliant Blue R-250 (GibcoBRL Life Technologies™, Frederick, Md.) to check equal loading of histones, dried, and exposed to KODAK® X-OMAT film.
The sensitivity of the ADP-ribosylase activity of mSir2α to poly ADP-ribosylation inhibitors (3-aminobenzamide and benzamide) and mono-ADP-ribosylation inhibitors (novobiocin and coumermycin A1) was evaluated. (FIG. 4F).

Sir2p = target: T2, Sir2p (Saccharomyces cerevisiae, UniProt P06700); test: NAD-dependent deacetylation of di-acetylated H3 peptide by recombinant yeast Sir2p (HPLC); type: biochemical; conditions: for function in the deacetylation of the H3 peptide by Sir2p: 1 mM NAD derivative; for inhibition of the deacetylase activity in a reaction with NAD: not shown
T2 construct: purified recombinant yeast (rSir2p) protein, mouse Sir2 (mSir2α) proteins and vector controls; 6×His; made in house; host or cells: E. coli BL21 (DE3), pET28a
T2 sequence (P06700 whole entry): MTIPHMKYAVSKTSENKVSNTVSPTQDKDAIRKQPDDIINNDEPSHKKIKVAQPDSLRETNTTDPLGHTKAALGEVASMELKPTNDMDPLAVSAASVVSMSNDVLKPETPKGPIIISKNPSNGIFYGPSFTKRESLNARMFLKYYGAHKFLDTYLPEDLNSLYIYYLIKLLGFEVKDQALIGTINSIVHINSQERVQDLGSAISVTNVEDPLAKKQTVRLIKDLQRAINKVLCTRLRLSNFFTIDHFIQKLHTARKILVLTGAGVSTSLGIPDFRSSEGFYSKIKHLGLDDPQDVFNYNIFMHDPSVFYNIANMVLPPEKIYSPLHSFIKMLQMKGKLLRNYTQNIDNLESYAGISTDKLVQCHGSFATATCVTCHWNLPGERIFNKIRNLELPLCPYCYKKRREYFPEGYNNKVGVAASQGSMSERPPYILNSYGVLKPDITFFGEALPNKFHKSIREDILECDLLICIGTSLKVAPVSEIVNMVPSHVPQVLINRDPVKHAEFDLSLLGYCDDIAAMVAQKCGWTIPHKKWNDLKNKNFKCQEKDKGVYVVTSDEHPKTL
Experimental: (§1) The typical reaction of Sir2 deacetylase activity was performed in 50 μl of buffer containing 50 mM Tris-HCl [pH 9.0], 4 mM MgCl2, 0.2 mM DTT, variable concentration of cold nicotinamide adenine dinucleotide (NAD) or NAD derivatives (SIGMA®, MO), 5-10 μg of the purified recombinant Sir2 proteins, and 10 μg of the histone H3 N-terminal tail peptide (amino acid 1-20) di-acetylated at positions 9 and 14 (Upstate Biotechnology™, NY). […] To detect the ADP-ribosylation activity, 8 μCi of NAD 5′-[α-^32P]triphosphate (˜1000 Ci/mmol, Amersham Pharmacia Biotech™, NJ) was added to the same reaction containing 1 μM cold NAD. Histone H3 protein (4 μg) (Roche Molecular Biochemicals™, IN) were used for this assay. All reaction mixtures were incubated at room temperature for 1 hr. Trichostatin A and coumermycin A1 (SIGMA™) were prepared in dimethylsulfoxide (DMSO, SIGMA®), and 5 μl of solvent or inhibitor was added to the reactions prior to adding Sir2 proteins.
(§2) After the incubation, the products were precipitated at −20° C. overnight by adding 50 μl of distilled water and 25 μl of 100% trichloroacetic acid (TCA) solution. For high pressure liquid chromatography (HPLC), the precipitates were reconstituted in 5% CH3CN and 0.1% trifluoroacetic acid (TFA) and run in the gradient concentration between 0.05% TFA and 0.043% TFA plus 80% CH3CN on Hewlett Packard Model 1100 HPLC system with 214TP52 column (VYDAC, CA). The chromatograms at the absorbance of 210 nm were digitally recorded and analyzed by Hewlett Packard ChemStation™ system (version A.06.03 [509]). Fractions of samples were collected every 1 min by Gilson™ Fraction Collector Model 203. Peptide sequencing was done by the Applied Biosystems PROCISE® 494 HT protein sequencing system. PTH amino acid chromatograms were recorded and analyzed by the ABI Model 610A2.1 data integration/analysis system.
The experiments employed purified recombinant Sir2p in a reaction with NAD and a peptide of the histone H3 amino-terminal tail (residues 1-20) di-acetylated at lysines 9 and 14. These lysines are hypoacetylated in silenced chromatin and mutations at these positions to glycine greatly reduce silencing in vivo (Thompson, J. S., et al., Nature 369: 245-247 (1994)). The products of a reaction containing 5 μg of recombinant yeast Sir2p (79 pmoles) (FIG. 8a), 10 μg of the H3 peptide (4.2 nmoles) increasing concentrations of NAD were analyzed s by high pressure liquid chromatography (HPLC).

[1] = system: mono-ADP-ribosyltransferases; conditions: literature value; read-out: reported IC50 concentration; cited from earlier work
[2] = system: di-acetylated H3 peptide (residues 1-20 acetylated on Lys9 and Lys14); test: deacetylase activity of recombinant Sir2p and Sir2p core domain mutants on H3 peptide; type: biochemical; conditions: for NAD-dependent histone H3 deacetylase activity, of wild type activity: 5 μg recombinant protein
Experimental: as §1, §2
(§3) BL21 with SIR2 or the sir2 mutants subcloned into pET28a (NOVAGEN®) were induced with 1 mM IPTG for 1 hr. The recombinant proteins were purified by Nickel-NTA column under native condition. Ribosylation and deacetylation assays were performed using 1 μg of recombinant protein for the ribosylation assay and 5 μg for the deacetylation assay.
A set of mutations in highly conserved residues of the core domain of SIR2 were constructed by site-directed mutagenesis (FIG. 17a) and cloned into vectors, along with the wild type, to allow expression of the recombinant proteins in E. coli or expression of single-copy genes from the native SIR2 promoter in S. cerevisiae. These 6×his (SEQ ID NO: 39) tagged proteins were purified from E. coli by a Ni-NTA column (FIG. 17b) and analyzed for the NAD-dependent histone H3 deacetylase activity in an assay with a di-acetylated H3 peptide (residues 1-20 acetylated on Lys9 and Lys14) and 1 mM NAD. HPLC separation of the reaction products yields five peaks of which 1, 2, a portion of 3 and 4 are deacetylated species of peptide (FIG. 15).

histone H3 = test: ADP-ribosyltransferase activity of Sir2p core domain mutants; type: biochemical; conditions: histone H3 substrate; relative to wild type
Experimental: as §1
Electron-spray mass spectroscopy (also referred to herein as mass spectroscopy) was done on the PE Sciex Model API365™ system. Matrix assisted laser desorption/ionization (MALDI) mass spectroscopy can also be used. The electron-spray mass spectroscopy data were analyzed by the BioMultiView Program™ (version 1.3.1). To detect the ADP-ribosylated intact H3 protein, the pellets were dissolved in 15 μl of Leammli sample buffer, boiled for 1.5 min and electrophoresed in a 10-20% gradient SDS-PAGE gel. The gel was stained with Coomassie Brilliant Blue to check equal loading of histones, dried, and exposed to KODAK® X-OMAT film. To analyze the ADP-ribosylated H3 peptides, 10 μl of each reaction mixture was spotted on a cellulose TLC plate (EM Science™, NJ). The chromatography was performed for 9-10 hrs in a TLC chamber containing the 65:5:3:2:29 mixture of isobutyric acid, pyridine, acetic acid, butanol and water (Scheidtmann, K. H., et al., J. Virol. 44:116-133 (1982)). The plate was dried and exposed to KODAK® X-OMAT film. The peptide spots were checked by ninhydrin staining.
as §3
The Sir 2 mutant proteins were also analyzed for ADP-ribosyltransferase activity using the histone H3 substrate, (FIG. 17c). […] The same pattern of activities was observed using a peptide of the N-terminal tail of histone H3 (not shown).

Molecule	NAD-dependent histone H3 deacetylase activity, of wild type activity ([2]; 1 mM NAD)	ADP-ribosyltransferase activity (histone H3)	also measured
NC(=O)c1cccc(N)c1 [3-aminobenzamide]			inhibition of the ADP-ribosylation activity of the mSir2α protein (mSir2α): did not inhibit
NC(=O)C1=CN([C@@H]2O[C@H](COP(=O)(O)OP(=O)(O)OC[C@H]3O[C@@H](n4cnc5c(N)ncnc54)[C@H](O)[C@@H]3O)[C@@H](O)[C@H]2O)C=CC1 [NADH]			function in the deacetylation of the H3 peptide by Sir2p (Sir2p): functioned weakly; inhibition of the deacetylase activity in a reaction with NAD (Sir2p): neither NADH nor NADP significantly inhibited
NC(=O)C1=CN([C@@H]2O[C@H](COP(=O)(O)OP(=O)(O)OC[C@H]3O[C@@H](n4cnc5c(N)ncnc54)[C@H](OP(=O)(O)O)[C@@H]3O)[C@@H](O)[C@H]2O)C=CC1 [NADPH]			function in the deacetylation of the H3 peptide by Sir2p (Sir2p): did not function significantly
NC(=O)c1ccc[n+]([C@@H]2O[C@H](COP(=O)([O-])OP(=O)(O)OC[C@H]3O[C@@H](n4cnc5c(N)ncnc54)[C@H](OP(=O)(O)O)[C@@H]3O)[C@@H](O)[C@H]2O)c1 [NADP]			function in the deacetylation of the H3 peptide by Sir2p (Sir2p): did not function significantly; inhibition of the deacetylase activity in a reaction with NAD (Sir2p): neither NADH nor NADP significantly inhibited
CC(/C=C/C(=O)NO)=C\[C@@H](C)C(=O)c1ccc(N(C)C)cc1 [TSA, trichostatin A]			inhibition of deacetylation by Sir2p (Sir2p; 400 nM): does not affect; also recorded: totally incapable of inhibiting
NC(=O)c1ccccc1 [benzamide]			inhibition of the ADP-ribosylation activity of the mSir2α protein (mSir2α): did not inhibit
CO[C@@H]1[C@@H](OC(N)=O)[C@@H](O)[C@H](Oc2ccc3c(O)c(NC(=O)c4ccc(O)c(CC=C(C)C)c4)c(=O)oc3c2C)OC1(C)C [novobiocin]			IC50 [1]: 370 µM; inhibition of ADP-ribosylation by mSir2α (mSir2α; 200 μM): strongly inhibited
Sir2p: purified recombinant 6×His-tagged yeast Sir2 protein			input peptide deacetylated ([2]; areas under HPLC peaks 1, 2 and 4, 1 mM NAD): at least 27%; acetyl lysines at positions 9 and 14 deacetylated ([2]; peak 4, Edmann degradation, in the presence of NAD): 23-27%
mutant 261: 6×His tagged yeast Sir2p core domain mutant, Thr-261 mutated to alanine	17%	4%	
mutant 270: 6×His tagged yeast Sir2p core domain mutant, Gly-270 mutated to alanine	80%	7%	
mutant 271: 6×His tagged yeast Sir2p core domain mutant, Iso-271 mutated to alanine	36%	8%	
mutant 275: 6×His tagged yeast Sir2p core domain mutant, Arg-275 mutated to alanine	67%	about as active as wild type	
mutant 345: 6×His tagged yeast Sir2p core domain mutant, Asn-345 mutated to alanine	inactive	completely inactive	
mutant 347: 6×His tagged yeast Sir2p core domain mutant, Asp-347 mutated to alanine	inactive	completely inactive	
